Assay results from patent EP2999467B1, “USE OF A COMBINATION OF TWO COMPOUNDS FOR THE TREATMENT AND/OR PREVENTION OF BONE DISORDERS” (Institut National de la Recherche Agronomique (INRA), priority 2013, dated 2014).
Like-named read-outs stand apart in the source and are kept apart here.

How the values were obtained:
[1] = tested on: préostéoblastes primaires; test: ALP activity measurement in differentiating osteoblasts; format: cell-based, rats Wistar; details: Rattus norvegicus, Osteoblast, read-out: activité ALP par rapport à la condition « AA+βGP seuls »
From the text: (§1) Les préostéoblastes primaires ont été isolés à partir de la calotte crânienne de rats Wistar nouveaux-nés par digestion enzymatique comme précédemment décrit [Declercq, H., Van den Vreken, N., De Maeyer, E., Verbeeck, R., Schacht, E., De Ridder, L., and Cornelissen, M. (2004). Isolation, proliferation and differentiation of osteoblastic cells to study cell/biomaterial interactions: comparison of different isolation techniques and source. Biomaterials 25, 757-68.]. Les précurseurs d'ostéoclastes RAW264.7 ont été obtenus auprès de l'ATCC (Manassas, VA, USA). Les préostéoblastes et les RAW264.7 ont été cultivés dans du milieu α-MEM (Invitrogen, Carlsbad, CA, USA) supplémenté avec 10% de SVF décomplémenté et de 100 unités/ml de pénicilline-streptomycine.
Les préostéoblastes primaires ont été ensemencés à 3500 cellules par puits dans des plaques 96 puits traitées au collagène. Trente-six heures plus tard, les cellules ont été prétraitées avec du DMSO comme témoin ou de la fisétine (1 à 5 µM) pendant 12 heures, puis induites à se différentier avec 25 µg/ml d'acide ascorbique et 5 mM de bêta-glycérophosphate en présence de DMSO ou de fisétine (1 à 5 µM). L'activité enzymatique ALP a été mesurée en cinétique après 0, 5, 7 et 12 jours de traitement avec un changement de milieux tous les 2 jours. Les cellules ont été lysées par des cycles de gel-dégel et les lysats ont subi une homogénéisation dans 200 µl de tampon chlorure de magnésium hexahydrate, di-éthanoamine à un pH de 9,8. Les lysats cellulaires (10 µl) ont été ajoutés à 200 µl de solution de p-nitrophényl phosphate (16,2 mM) et l'absorbance a été mesurée en utilisant un lecteur de microplaques à 405 nm toutes les 90 seconds pendant 30min. Pour chaque échantillon, la concentration de protéines a été analysée pour exprimer les résultats sous forme de µmol de p-nitrophenol/heure/mg de protéines.

collagène de type 1 = test: Quantitative RT-PCR, osteoblast differentiation marker: type 1 collagen; format: cell-based, rats Wistar; details: Rattus norvegicus; for activation at 5 µM: AA+βGP+Fisétine 5µM
From the text: as §1
L'extraction des ARN totaux (cellules et fémurs) a été effectuée en utilisant le réactif TRIzol, la transcription inverse (RT) a été réalisée à l'aide du kit de synthèse d'ADNc Dynamo (Thermo Scientific, Waltham, MA, USA) et l'analyse PCR en temps réel a été réalisée avec le Mastercycler ep Realplex2 (Eppendorf, Hambourg, Allemagne). Toutes les valeurs ont été normalisées par la GAPDH. Les séquences des oligos utilisés sont : ALP F 5'-GGCCAGCTACACCACAACA-3' / ALP R 5'-[…] -3' / OCN F 5'-AGACTCCGGCGCTACCTT -3' / OCN R 5'-[…]-3'/ COL1 F 5'-[…]-3' / COL1 R 5'-[…]-3' / GAPDH F 5'-[…]-3' / GAPDH R 5'-[…]-3'

## O=c1c(O)c(-c2ccc(O)c(O)c2)oc2cc(O)ccc12 [Fisétine, 3,3',4',7-tétrahydroxyflavone]
[1]; AA+βGP+Fisétine 1 µM
  activation at 1 µM: 32%
[1]; AA+βGP+Fisétine 5µM
  activation at 5 µM: 87%
[1]; AA+βGP+Fisétine 2,5µM
  activation at 2.5 µM: 63%
collagène de type 1; 168 h, AA+βGP+Fisétine 1 µM, J7, read-out: expression du collagène de type 1 par rapport à la condition « AA+βGP seuls »
  activation at 1 µM: 34%
collagène de type 1; 168 h, J7, read-out: expression du collagène de type 1 par rapport à la condition « AA+βGP seuls »
  activation at 5 µM: 80%
collagène de type 1; 336 h, AA+βGP+Fisétine 1µM, J14, read-out: expression du collagène de type 1 par rapport à la condition « AA+βGP seuls »
  activation at 1 µM: 60%
collagène de type 1; 336 h, J14, read-out: expression du collagène de type 1 par rapport à la condition « AA+βGP seuls »
  activation at 5 µM: 138%
